Measurements from ChEMBL document CHEMBL1151220, “Further bioactive piperidine alkaloids from the flowers and green fruits of Cassia spectabilis” (2004).
Calls of active or inactive are those of the source. The rule behind the calls is not given here.

Experiments:
Type in all cases: functional
[1] = test system: Saccharomyces cerevisiae; test: DNA damaging activity against RS 321N Saccharomyces cerevisiae
[2] = test system: Saccharomyces cerevisiae; test: DNA damaging activity against DNA RS 322YK ([…]) Saccharomyces cerevisiae
[3] = test system: Saccharomyces cerevisiae; test: DNA damaging activity against RS 188N (RAD+) Saccharomyces cerevisiae

Row | Compound | IC12 [1] | Activity [2] | Activity [3] | Activity [1]
1 | CC(=O)CCCCCCCCCCCC[C@H]1CC[C@@H](OC(C)=O)[C@@H](C)N1 | 32 µg/mL |  |  | 
2 | CC(=O)CCCCCCCCCCCC[C@@H]1CC[C@@H](O)[C@@H](C)N1 |  | inactive | inactive | inactive
3 | COC1=C(N)C(=O)c2nc(-c3nc(C(=O)O)c(C)c(-c4ccc(OC)c(OC)c4O)c3N)ccc2C1=O [STREPTONIGRIN] | 4 µg/mL |  |  | 
4 | CC(=O)CCCCCCCCCCCC[C@H]1CC[C@@H](O)[C@@H](CO)N1 |  | inactive | inactive | inactive
5 | CC(=O)CCCCCCCCCCCC[C@H]1CC[C@@H](O)[C@@H](C)N1 | 17 µg/mL |  |  | 
